Data published in patent US10745420B2, “Tetrahydropyrido[4,3-d]pyrimidine inhibitors of ATR kinase” (Board of Regents, The University of Texas System, priority 2017, dated 2020).
Read-outs that look alike come from different tables or passages of the source.

Key:
[1] = tested on: ATR-driven phosphorylation of Chk1 kinase at Serine 345; experiment: pCHK1 cellular assay (CHK1 p-Ser345 AlphaScreen SureFire) in HT-29 cells; assay type: cell-based; settings: 4-nitroquinoline N-oxide 12 uM, read-out: pCHK1 Cell IC50
Experimental: Inhibitors of ATR kinase are effective at inhibiting the ATR-driven phosphorylation of the downstream target Chk1 kinase at Serine 345, following the addition of 4-nitroquinoline N-oxide, a chemical used to induce DNA damage. Cellular IC50 for the inhibitors of ATR described herein were measured in HT-29 colorectal adenocarcinoma cells. HT-29 cells were routinely maintained in McCoy's 5A media (ATCC Catalog #30-2007) supplemented with 10% fetal bovine serum (Sigma Catalog # F2442) and 1× Penicillin-Streptomycin (Gibco Catalog #15140-122) using a humidified incubator (37° C., 5% CO2, and ambient O2).
In preparation for the CHK1 (p-Ser345) ALPHASCREEN® SUREFIRE® assay, cells were harvested and resuspended in McCoy's 5A media supplemented with 10% fetal bovine serum and 1× Penicillin-Streptomycin. Cells were seeded onto a 384-well black CELLSTAR® Tissue Culture Plate (VWR Catalog #89085-314) at a density of 13,000 cells/well in a volume of 40 uL. The microplate was incubated overnight (approximately 20 hours) at 37° C. with 5% CO2 and ambient O2. Stock solutions of the test compounds were prepared in 100% DMSO (Sigma, Catalog # D2650) and serially diluted 1:3 using 100% DMSO. Compounds were additionally diluted 1:33 in culture medium, and 10 ul/well were transferred to the tissue culture plate. Following the compound addition the microplate was incubated at 37° C. for 90 minutes. 10 uL of 4-nitroquinoline N-oxide (Sigma Aldrich Catalog # N8141-1G) diluted in media (final concentration 12 uM) were added to the tissue culture plate followed by a 120 minute incubation at 37° C. The cells were then washed with PBS and lysed using 10 uL/well SUREFIRE® Kit lysis buffer diluted to 1× in water (PerkinElmer Catalog # TGRCHK1S50K), with mixing on an orbital shaker at 500 rpm for 20 min at RT. Lysates were frozen at −20° C. overnight.
4 uL/well of lysate was then transferred from the tissue culture plate to a 384-well, white, low volume, PROXIPLATE™ (PerkinElmer Catalog #600828). 5 uL/well of the acceptor bead solution, prepared by diluting SUREFIRE® Kit activation buffer (PerkinElmer Catalog # TGRCHK1S50K) and ALPHASCREEN® Protein A acceptor beads (PerkinElmer Catalog #6760617R) in SUREFIRE® Kit reaction buffer (PerkinElmer Catalog # TGRCHK1S50K), were added to the lysates under subdued light and incubated at room temperature for 120 min. 2 uL/well of the donor bead solution, prepared by diluting ALPHASCREEN® Streptavidin donor beads (PerkinElmer Catalog #6760617R) in SUREFIRE® Kit dilution buffer (PerkinElmer Catalog # TGRCHK1S50K), were added under subdued light and incubated at room temperature for an addition 120 minutes. The pCHK1 ALPHASCREEN® signal was measured using an ENVISION® plate reader (PerkinElmer). IC50 values were calculated using a four-parameter logistic curve fit using Genedata Screener software. Percent of control for each compound concentration was calculated by the following formula: 100*(Compound-Min)/(Max-Min) where “Max” is the high control, DMSO, and “Min” is the low control, 5 uM ATR inhibitor.

[2] = target: ATR/ATRIP complex (Homo sapiens (Human), UniProt Q13535); experiment: ATR/ATRIP enzymatic assay (Caliper-based); assay type: biochemical; settings: FAM-labeled RAD17 peptide, ATP; read-out: ATR/ATRIP Enzyme IC50
Experimental: Human full-length FLAG-TEV-ATR and His6-ATRIP were co-expressed in HEK293 cells. The cell pellet (20 g) was harvested and lysed in 100 mL of lysis buffer (20 mM Tris-HCl pH 7.5 at room temperature, 137 mM NaCl, 10% glycerol, 1 mM DTT, 1% (v/v) Tween-20, 0.1% (v/v) NP-40, complete protease inhibitor cocktail tablets, phosphatase inhibitor cocktail tablets, 2 mM MgCl2, 0.2 mM EDTA, and 1 mM ATP). After sonication and centrifugation, the supernatant was incubated at 4° C. for 3 hours with 1 mL of anti-FLAG resin (Sigma catalog # A2220) that had been pre-equilibrated in buffer A (20 mM Tris-HCl pH 7.5 at room temperature, 137 mM NaCl, 10% glycerol, 1 mM DTT, 2 mM MgCl2, and 0.2 mM EDTA). The sample was loaded into a column, and then washed with buffer A three times. Protein was subsequently eluted with 2 ml of buffer B (buffer A+200 μg/ml 3×FLAG peptide).
The ability of new chemical matter to inhibit the ATR catalytic activity in this ATR/ATRIP complex was assessed a Caliper-based assay. A 2× enzyme solution (i.e., 4 nM enzyme) was prepared using 1× Kinase Reaction Buffer (25 mM HEPES pH 8, 0.0055% Brij-35, 10 mM MnCl2, and 1 mM DTT). A 2× peptide solution was then prepared consisting of 10 uM FAM-labeled RAD17 peptide (GL Biochem, catalog #524315) in 1× Kinase Reaction Buffer supplemented with 2 μM ATP. 10 μL of the 2× enzyme solution was transferred to an assay plate containing 60 nL of test compound (from a 3× serial dilution) in 100% DMSO. Following a 30 minute incubation at 28° C., 10 μL of the 2× peptide solution was then transferred to the same assay plate. The reaction was allowed to incubate at 28° C. for 6 hours. After adding 30 μL of stop buffer (100 mM HEPES pH 7.5, 0.015% Brij-35, 0.2% Coating-3 Reagent (PerkinElmer, catalog # PN760050), and 50 mM EDTA), data were collected on a Caliper instrument. […] IC50 values were calculated using the following equation in XLFit: Y=Bottom+(Top-Bottom)/1+(IC50/X)^HillSlope).

[3] = Homo sapiens, HT-29, HT-29 colorectal adenocarcinoma cells

Sequence of ATR/ATRIP complex (Q13535 whole entry): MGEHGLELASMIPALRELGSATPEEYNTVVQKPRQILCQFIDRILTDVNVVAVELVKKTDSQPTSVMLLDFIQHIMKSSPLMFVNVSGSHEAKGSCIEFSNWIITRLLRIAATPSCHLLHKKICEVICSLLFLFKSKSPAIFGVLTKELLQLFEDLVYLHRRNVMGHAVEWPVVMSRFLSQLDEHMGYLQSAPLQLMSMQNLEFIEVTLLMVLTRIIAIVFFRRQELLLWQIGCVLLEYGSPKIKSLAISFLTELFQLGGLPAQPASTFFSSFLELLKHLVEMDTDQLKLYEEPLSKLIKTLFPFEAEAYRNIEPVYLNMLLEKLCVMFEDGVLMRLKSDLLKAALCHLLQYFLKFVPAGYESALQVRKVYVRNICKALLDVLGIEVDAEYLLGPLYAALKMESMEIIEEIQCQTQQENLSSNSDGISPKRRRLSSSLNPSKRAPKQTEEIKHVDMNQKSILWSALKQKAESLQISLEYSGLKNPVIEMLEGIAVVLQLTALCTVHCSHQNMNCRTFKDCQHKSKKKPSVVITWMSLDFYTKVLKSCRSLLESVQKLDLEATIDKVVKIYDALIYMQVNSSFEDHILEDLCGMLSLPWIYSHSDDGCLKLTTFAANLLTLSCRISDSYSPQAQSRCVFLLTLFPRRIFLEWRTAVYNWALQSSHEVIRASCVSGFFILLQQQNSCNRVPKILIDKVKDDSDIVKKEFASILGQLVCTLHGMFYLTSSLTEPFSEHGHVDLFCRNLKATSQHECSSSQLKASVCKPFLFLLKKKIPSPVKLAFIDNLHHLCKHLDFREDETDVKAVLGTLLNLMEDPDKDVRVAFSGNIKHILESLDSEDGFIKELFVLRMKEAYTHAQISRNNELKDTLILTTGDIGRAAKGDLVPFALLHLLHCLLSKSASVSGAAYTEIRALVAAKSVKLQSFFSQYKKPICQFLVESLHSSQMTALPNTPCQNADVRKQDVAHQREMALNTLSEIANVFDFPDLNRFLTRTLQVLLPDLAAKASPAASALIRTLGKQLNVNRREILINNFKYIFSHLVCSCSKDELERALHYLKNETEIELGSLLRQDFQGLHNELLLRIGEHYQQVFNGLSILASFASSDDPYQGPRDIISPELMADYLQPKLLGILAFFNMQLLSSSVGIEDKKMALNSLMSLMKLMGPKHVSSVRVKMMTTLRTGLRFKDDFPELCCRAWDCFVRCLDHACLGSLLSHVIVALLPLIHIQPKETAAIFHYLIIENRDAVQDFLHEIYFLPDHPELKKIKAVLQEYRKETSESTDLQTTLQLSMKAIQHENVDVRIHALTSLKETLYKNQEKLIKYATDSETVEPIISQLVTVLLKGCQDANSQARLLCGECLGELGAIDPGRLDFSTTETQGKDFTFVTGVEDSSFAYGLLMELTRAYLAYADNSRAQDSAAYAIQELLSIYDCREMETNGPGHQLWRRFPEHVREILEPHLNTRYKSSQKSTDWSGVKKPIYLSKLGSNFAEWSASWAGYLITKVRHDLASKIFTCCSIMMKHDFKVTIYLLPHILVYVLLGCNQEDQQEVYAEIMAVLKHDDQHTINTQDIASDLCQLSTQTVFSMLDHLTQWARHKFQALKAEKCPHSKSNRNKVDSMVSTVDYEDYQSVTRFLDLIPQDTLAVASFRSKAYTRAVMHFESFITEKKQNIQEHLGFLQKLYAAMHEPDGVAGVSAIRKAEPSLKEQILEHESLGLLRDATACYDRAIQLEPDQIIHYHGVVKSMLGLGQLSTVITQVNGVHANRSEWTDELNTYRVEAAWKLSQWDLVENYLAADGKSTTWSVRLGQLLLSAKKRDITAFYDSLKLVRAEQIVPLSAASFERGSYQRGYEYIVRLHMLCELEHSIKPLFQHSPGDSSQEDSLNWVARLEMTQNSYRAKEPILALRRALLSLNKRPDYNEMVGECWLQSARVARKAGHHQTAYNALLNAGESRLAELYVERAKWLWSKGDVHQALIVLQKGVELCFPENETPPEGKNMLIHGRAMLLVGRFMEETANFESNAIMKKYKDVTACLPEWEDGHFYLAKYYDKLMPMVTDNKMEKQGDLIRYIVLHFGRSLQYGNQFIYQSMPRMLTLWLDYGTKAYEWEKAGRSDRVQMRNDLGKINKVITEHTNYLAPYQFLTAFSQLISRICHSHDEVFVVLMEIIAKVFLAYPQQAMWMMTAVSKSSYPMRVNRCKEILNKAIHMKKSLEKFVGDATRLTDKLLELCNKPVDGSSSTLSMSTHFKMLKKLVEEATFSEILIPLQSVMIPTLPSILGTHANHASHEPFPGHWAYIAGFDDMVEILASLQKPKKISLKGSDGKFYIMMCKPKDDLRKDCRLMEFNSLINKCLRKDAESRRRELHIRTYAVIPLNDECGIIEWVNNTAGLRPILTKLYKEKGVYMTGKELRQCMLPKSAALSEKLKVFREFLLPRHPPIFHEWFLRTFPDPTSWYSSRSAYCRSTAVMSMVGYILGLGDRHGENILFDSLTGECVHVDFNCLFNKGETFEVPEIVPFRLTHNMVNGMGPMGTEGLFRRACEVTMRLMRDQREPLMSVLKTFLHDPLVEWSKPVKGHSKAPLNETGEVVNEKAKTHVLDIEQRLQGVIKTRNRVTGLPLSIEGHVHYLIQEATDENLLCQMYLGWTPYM
Sequence of ATR/ATRIP complex (Q8WXE1 whole entry partner): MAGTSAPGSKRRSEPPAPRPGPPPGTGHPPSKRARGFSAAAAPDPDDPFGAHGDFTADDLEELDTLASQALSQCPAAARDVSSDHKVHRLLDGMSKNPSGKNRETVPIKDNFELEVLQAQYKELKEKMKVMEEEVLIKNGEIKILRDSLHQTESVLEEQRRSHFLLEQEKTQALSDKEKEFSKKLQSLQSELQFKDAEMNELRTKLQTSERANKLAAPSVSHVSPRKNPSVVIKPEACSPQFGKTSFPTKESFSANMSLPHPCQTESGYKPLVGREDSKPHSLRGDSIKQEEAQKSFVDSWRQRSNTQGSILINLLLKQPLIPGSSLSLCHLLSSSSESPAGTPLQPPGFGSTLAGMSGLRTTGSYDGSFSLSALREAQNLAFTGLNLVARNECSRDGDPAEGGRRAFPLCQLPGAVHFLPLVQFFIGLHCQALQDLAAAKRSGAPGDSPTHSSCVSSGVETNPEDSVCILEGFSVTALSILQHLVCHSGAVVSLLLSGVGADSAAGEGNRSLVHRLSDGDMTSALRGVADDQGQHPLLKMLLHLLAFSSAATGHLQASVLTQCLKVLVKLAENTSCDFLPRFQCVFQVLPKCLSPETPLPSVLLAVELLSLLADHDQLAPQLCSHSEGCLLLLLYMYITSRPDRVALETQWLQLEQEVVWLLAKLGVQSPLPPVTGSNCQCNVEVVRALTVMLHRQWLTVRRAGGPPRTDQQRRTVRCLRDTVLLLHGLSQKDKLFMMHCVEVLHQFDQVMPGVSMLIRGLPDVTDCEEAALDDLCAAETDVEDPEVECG

Row | SMILES | IC50 [1, 3] | IC50 [2] | IC50 ([1]; HT-29 colorectal adenocarcinoma cells)
1 | C[C@@H]1Cc2ncnc([C@H]3CCN(S(C)(=O)=O)C(C)(C)C3)c2CN1c1ccnc2[nH]ccc12 (single isomer, unassigned) [Example 48b] | 79 nM |  | 
2 | C[C@@H]1Cc2ncnc(N3CCC(S(C)(=O)=O)CC3)c2CN1c1cc(Cl)nc2[nH]ccc12 [Example 9, (R)-6-(6-Chloro-1H-pyrrolo[2,3-b]pyridin-4-yl)-7-methyl-4-(4-(methylsulfonyl)-piperidin-1-yl)-5,6,7,8-tetrahydropyrido[4,3-d]pyrimidine bis(trifluoroacetate)] |  |  | 25 nM
3 | C[C@@H]1Cc2ncnc([C@H]3CCN(S(C)(=O)=O)C3)c2CN1c1ccnc2[nH]ccc12 [Example 57b, (R)-7-methyl-4-((S)-1-(methylsulfonyl)pyrrolidin-3-yl)-6-(1H-pyrrolo[2,3-b]pyridin-4-yl)-5,6,7,8-tetrahydropyrido[4,3-d]pyrimidine] | 394 nM |  | 
4 | C[C@@H]1Cc2ncnc(N3C[C@H]4CC[C@@H](C3)[C@H]4NS(C)(=O)=O)c2CN1c1ccnc2[nH]ccc12 [Example 74, N-((1R,5S,8R)-3-((R)-7-methyl-6-(1H-pyrrolo[2,3-b]pyridin-4-yl)-5,6,7,8-tetrahydropyrido[4,3-d]pyrimidin-4-yl)-3-azabicyclo[3.2.1]octan-8-yl)methanesulfonamide] | 31 nM | 279 nM | 
5 | C[C@@H]1Cc2ncnc(N3CCC(S(C)(=O)=O)CC3)c2CN1c1ccnc2[nH]ccc12 [Example 88, (R)-7-methyl-4-(4-(methylsulfonyl)piperidin-1-yl)-6-(1H-pyrrolo[2,3-b]pyridin-4-yl)-5,6,7,8-tetrahydropyrido[4,3-d]pyrimidine] | 85 nM |  | 

Further lines, with some results ahead:

Row | IC50 [1, 3] | IC50 [2] | SMILES | IC50 ([1]; HT-29 colorectal adenocarcinoma cells)
6 |  | 561 nM | C[C@@H]1Cc2ncnc(C3CCCN(S(C)(=O)=O)C3)c2CN1c1cc(Cl)nc2[nH]ccc12 (single isomer, unassigned) [Example 51a] | 
7 |  | 2200 nM | C[C@@H]1Cc2ncnc(C3CCCN(S(C)(=O)=O)C3)c2CN1c1cc(Cl)nc2[nH]ccc12 (single isomer, unassigned) [Example 51b] | 
